# According to patent US10570179B2, “Substituted urea depsipeptide analogs as activators of the CLPP endopeptidase” (priority 2016, dated 2020):
# Numbered stars: 1 amine (or outer) side, 2 acyl side, 3 side chain; on linkers, the order of the positions; unused ones are H or OH. Bridge positions count the residues as written; N and C are the ends. Square brackets hold non-standard residues; d marks the D form. Peptide text beside a SMILES is read from it. * marks the point of attachment. Piperazine(2S-CO,4-Me) = CN1CCN[C@H](C(=O)O)C1; Phe(3,5-F2) = N[C@@H](Cc1cc(F)cc(F)c1)C(=O)O; NH(1-Me-indolin-5-yl) = CN1CCc2cc(N*)ccc21; X6 = O=C([C@@H]1CS(=O)(=O)CCN1[*:1])[*:2]; Morpholine(3S-CO) = O=C(O)[C@@H]1COCCN1; Phe(3-Me) = Cc1cccc(C[C@H](N)C(=O)O)c1; Pro(4S-Me) = C[C@@H]1CN[C@H](C(=O)O)C1; NH(4-Cl-2-F-phenyl) = Fc1cc(Cl)ccc1N*; Pro(4R-Me) = C[C@H]1CN[C@H](C(=O)O)C1; Propanoyl(3-NMe2) = CN(C)CCC(=O)*; X1 = O=C([C@@H]1CSCCN1[*:1])[*:2]; Hyp = O=C(O)[C@@H]1C[C@@H](O)CN1; NH(4-Me-phenyl) = Cc1ccc(N*)cc1; aThr = C[C@H](O)[C@H](N)C(=O)O; Pip = O=C(O)[C@@H]1CCCCN1; 4Abz = Nc1ccc(C(=O)O)cc1; CO = O=C([*:1])[*:2]; X2 = Fc1cc(N*)ccc1Cl
# Assay: Microsomal metabolic stability
# Format: in vitro ADME, mouse
# Settings: CD-1, mouse, pH 7.4
# Protocol: Compounds were initially prepared by dissolving them into DMSO at a final concentration of 10 mM. NADPH regenerating solutions A and B and mouse liver microsomes (CD-1) were obtained from BD Gentest (Woburn, Mass.). Ninety-six well deep well plates were obtained from MidWest Scientific Inc (Valley Park, Mo.).
# Sample preparation for microsomal stability was modified from methods of Di, L., et al., Int J Pharm. 2005 Jun. 13; 297(1-2):110-9. A set of incubation times of 0, 15, 30, 60, 120, and 240 minutes were used. Mouse liver microsomal solutions were prepared by adding 58 μL of concentrated human or mouse liver microsomes (20 mg/mL protein concentration) to 1.756 mL of 0.1 M potassium phosphate buffer (pH 7.4) and 5 μL of 0.5 M EDTA to make a 0.6381 mg/mL (protein) microsomal solution. NADPH regenerating agent contained 113 μL of NADPH A, 23 μL of NADPH B, and 315 μL of 0.1 M potassium phosphate buffer (pH 7.4). The diluted test compound solutions (2 μL) were each added directly to a 1.79 mL of liver microsomal solution. This solution was mixed and 90 μL was transferred to 6 time points plates (each in triplicate wells). For the time 0 plate, 225 μL of cold acetonitrile with internal standard ([…] warfarin) was added to each well, followed by addition of NADPH regenerating agent (22.5 μL) and no incubation. For other five time points' plate, NADPH regenerating agent (22.5 μL) was added to each well to initiate the reaction. The plates were incubated at 37° C. for the required time, followed by quenching of the reaction by adding 225 μL of cold acetonitrile with internal standard (4 μg/ml warfarin). All of the plates were sealed and mixed well at 600 rpm for 10 minutes followed by centrifugation at 4000 rpm for 20 minutes. The supernatants (120 μL) were transferred to analytical plates for analysis by LCMS. LCMS conditions were described in the materials and instrumentation section above. The metabolic stability is evaluated via the half-life from least-squares fit of the multiple time points based on first-order kinetics.
row,SMILES,Mouse
1,"C[C@@H]1C[C@H]2C(=O)OC[C@H](NC(=O)[C@H](Cc3cc(F)cc(F)c3)NC(=O)Nc3ccc(Cl)cc3F)C(=O)N3CCC[C@H]3C(=O)N3CCN(C)C[C@H]3C(=O)N[C@@H](C)C(=O)N2C1 [Compound 34] ({NH(4-Cl-2-F-phenyl)-CO}-[Phe(3,5-F2)]SP[Piperazine(2S-CO,4-Me)]A[Pro(4R-Me)]; ester 2-C)",1.18 ± .185 h
2,"Cc1cccc(C[C@H](NC(=O)Nc2ccc(Cl)c(F)c2)C(=O)N[C@@H]2C(=O)N3CCC[C@H]3C(=O)N3CCCC[C@H]3C(=O)N[C@@H](C)C(=O)N3C[C@H](C)C[C@H]3C(=O)O[C@H]2C)c1 [Compound 35, (S)-2-(3-(4-CHLORO-3-FLUOROPHENYL)UREIDO)-3-(M-TOLYL)-N-((2R,6S,8AS,14AS,20S,21S,23AS)-2,6,21-TRIMETHYL-5,8,14,19,23-PENTAOXOOCTADECAHYDRO-1H,5H,14H,19H-PYRIDO[2,1-I]DIPYRROLO[2,1-C:2′,1′-L][1]OXA[4,7,10,13]TETRAAZACYCLOHEXADECIN-20-YL)PROPANAMIDE] ({X2-CO}-[Phe(3-Me)][aThr]P[Pip]A[Pro(4R-Me)]; ester 2-C)",1.54 ± .545 h
3,"Cc1cccc(C[C@H](NC(=O)Nc2ccc(Cl)cc2F)C(=O)N[C@@H]2C(=O)N3CCC[C@H]3C(=O)N3CCSC[C@H]3C(=O)N[C@@H](C)C(=O)N3C[C@H](C)C[C@H]3C(=O)O[C@H]2C)c1 [Compound 38, (S)-2-(3-(4-CHLORO-2-FLUOROPHENYL)UREIDO)-3-(M-TOLYL)-N-((6AS,12S,13S,15AS,17R,21S,23AR)-13,17,21-TRIMETHYL-6,11,15,20,23-PENTAOXOOCTADECAHYDRO-6H,11H,15H-DIPYRROLO[2,1-C:2′,1′-L][1,4]THIAZINO[3,4-I][1]OXA[4,7,10,13]TETRAAZACYCLOHEXADECIN-12-YL)PROPANAMIDE] ({NH(4-Cl-2-F-phenyl)-CO}-[Phe(3-Me)][aThr]P[X1]A[Pro(4R-Me)]; ester 2-C)",1.25 ± .253 h
4,"Cc1cccc(C[C@H](NC(=O)Nc2ccc(Cl)cc2F)C(=O)N[C@@H]2C(=O)N3CCC[C@H]3C(=O)N3CCS(=O)(=O)C[C@H]3C(=O)N[C@@H](C)C(=O)N3C[C@H](C)C[C@H]3C(=O)O[C@H]2C)c1 [Compound 40, (S)-2-(3-(4-CHLORO-2-FLUOROPHENYL)UREIDO)-3-(M-TOLYL)-N-((6AS,12S,13S,15AS,17R,21S,23AR)-13,17,21-TRIMETHYL-2,2-DIOXIDO-6,11,15,20,23-PENTAOXOOCTADECAHYDRO-6H,11H,15H-DIPYRROLO[2,1-C:2′,1′-L][1,4]THIAZINO[3,4-I][1]OXA[4,7,10,13]TETRAAZACYCLOHEXADECIN-12-YL)PROPANAMIDE] ({NH(4-Cl-2-F-phenyl)-CO}-[Phe(3-Me)][aThr]P[X6]A[Pro(4R-Me)]; ester 2-C)",6.54 ± .543 h
5,"Cc1cccc(C[C@H](NC(=O)Nc2ccc(Cl)cc2F)C(=O)N[C@@H]2C(=O)N3C[C@H](O)C[C@H]3C(=O)N3CCSC[C@H]3C(=O)N[C@@H](C)C(=O)N3C[C@H](C)C[C@H]3C(=O)O[C@H]2C)c1 [Compound 41, (S)-2-(3-(4-CHLORO-2-FLUOROPHENYL)UREIDO)-N-((6AS,8R,12S,13S,15AS,17R,21S,23AR)-8-HYDROXY-13,17,21-TRIMETHYL-6,11,15,20,23-PENTAOXOOCTADECAHYDRO-6H,11H,15H-DIPYRROLO[2,1-C:2′,1′-L][1,4]THIAZINO[3,4-I][1]OXA[4,7,10,13]TETRAAZACYCLOHEXADECIN-12-YL)-3-(M-TOLYL)PROPANAMIDE] ({NH(4-Cl-2-F-phenyl)-CO}-[Phe(3-Me)][aThr][Hyp][X1]A[Pro(4R-Me)]; ester 2-C)",0.11 ± .113 h
6,"Cc1cccc(C[C@H](NC(=O)Nc2ccc(Cl)cc2F)C(=O)N[C@@H]2C(=O)N3C[C@H](OC(=O)CCN(C)C)C[C@H]3C(=O)N3CCCC[C@H]3C(=O)N[C@@H](C)C(=O)N3C[C@H](C)C[C@H]3C(=O)O[C@H]2C)c1 [Compound 46, (2R,6S,8AS,14AS,16R,20S,21S,23AS)-20-((S)-2-(3-(4-CHLORO-2-FLUOROPHENYL)UREIDO)-3-(M-TOLYL)PROPANAMIDO)-2,6,21-TRIMETHYL-5,8,14,19,23-PENTAOXOOCTADECAHYDRO-1H,5H,14H,19H-PYRIDO[2,1-I]DIPYRROLO[2,1-C:2′,1′-L][1]OXA[4,7,10,13]TETRAAZACYCLOHEXADECIN-16-YL 3-(DIMETHYLAMINO)PROPANOATE] ({NH(4-Cl-2-F-phenyl)-CO}-[Phe(3-Me)][aThr][Hyp](Propanoyl(3-NMe2))[Pip]A[Pro(4R-Me)]; ester 2-C)",0.22 ± 0.0 h

# Same assay, conditions: microsomal metabolic stability half-life, mouse liver microsomes
row,SMILES,Mouse
1,"Cc1ccc(NC(=O)N[C@@H](Cc2cccc(C)c2)C(=O)N[C@H]2COC(=O)[C@@H]3C[C@H](C)CN3C(=O)[C@H](C)NC(=O)[C@@H]3CCCCN3C(=O)[C@@H]3CCCN3C2=O)cc1 (stereo in doubt) [Compound 43, (S)—N-((2S,6S,8AS,14AS,20S,23AS)-2,6-DIMETHYL-5,8,14,19,23-PENTAOXOOCTADECAHYDRO-1H,5H,14H,19H-PYRIDO[2,1-I]DIPYRROLO[2,1-C:2′,1′-L][1]OXA[4,7,10,13]TETRAAZACYCLOHEXADECIN-20-YL)-3-(M-TOLYL)-2-(3-(P-TOLYL)UREIDO)PROPANAMIDE]",3.57 ± 0.3 h
2,"C[C@@H]1C[C@H]2C(=O)O[C@@H](C)[C@H](NC(=O)[C@H](Cc3cc(F)cc(F)c3)NC(=O)Nc3ccc4c(c3)CCN4C)C(=O)N3CCC[C@H]3C(=O)N3CCOC[C@H]3C(=O)N[C@@H](C)C(=O)N2C1 [Compound 32] ({NH(1-Me-indolin-5-yl)-CO}-[Phe(3,5-F2)][aThr]P[Morpholine(3S-CO)]A[Pro(4R-Me)]; ester 2-C)",0.95 ± .95 h
3,"CCOC(=O)c1ccc(NC(=O)N[C@@H](Cc2cccc(C)c2)C(=O)N[C@@H]2C(=O)N3C[C@H](O)C[C@H]3C(=O)N3CCCC[C@H]3C(=O)N[C@@H](C)C(=O)N3C[C@H](C)C[C@H]3C(=O)O[C@H]2C)cc1 [Compound 36, ETHYL 4-(3-((S)-1-(((2R,6S,8AS,14AS,16R,20S,21S,23AS)-16-HYDROXY-2,6,21-TRIMETHYL-5,8,14,19,23-PENTAOXOOCTADECAHYDRO-1H,5H,14H,19H-PYRIDO[2,1-I]DIPYRROLO[2,1-C:2′,1′-L][1]OXA[4,7,10,13]TETRAAZACYCLOHEXADECIN-20-YL)AMINO)-1-OXO-3-(M-TOLYL)PROPAN-2-YL)UREIDO)BENZOATE] ({OEt-4Abz-CO}-[Phe(3-Me)][aThr][Hyp][Pip]A[Pro(4R-Me)]; ester 2-C)",11.23 ± 1.23 h
4,"Cc1ccc(NC(=O)N[C@@H](Cc2cccc(C)c2)C(=O)N[C@@H]2C(=O)N3C[C@H](O)C[C@H]3C(=O)N3CCSC[C@H]3C(=O)N[C@@H](C)C(=O)N3C[C@H](C)C[C@H]3C(=O)O[C@H]2C)cc1 [Compound 42, (S)—N-((6AS,8R,12S,13S,15AS,17R,21S,23AR)-8-HYDROXY-13,17,21-TRIMETHYL-6,11,15,20,23-PENTAOXOOCTADECAHYDRO-6H,11H,15H-DIPYRROLO[2,1-C:2′,1′-L][1,4]THIAZINO[3,4-I][1]OXA[4,7,10,13]TETRAAZACYCLOHEXADECIN-12-YL)-3-(M-TOLYL)-2-(3-(P-TOLYL)UREIDO)PROPANAMIDE] ({NH(4-Me-phenyl)-CO}-[Phe(3-Me)][aThr][Hyp][X1]A[Pro(4R-Me)]; ester 2-C)",0.78 ± .783 h
5,"Cc1ccc(NC(=O)N[C@@H](Cc2cccc(C)c2)C(=O)N[C@@H]2C(=O)N3CCC[C@H]3C(=O)N3CCCC[C@H]3C(=O)N[C@@H](C)C(=O)N3C[C@@H](C)C[C@H]3C(=O)O[C@H]2C)cc1 [Compound 45, (S)-3-(M-TOLYL)-2-(3-(P-TOLYL)UREIDO)-N-((2S,6S,8AS,14AS,20S,21S,23AS)-2,6,21-TRIMETHYL-5,8,14,19,23-PENTAOXOOCTADECAHYDRO-1H,5H,14H,19H-PYRIDO[2,1-I]DIPYRROLO[2,1-C:2′,1′-L][1]OXA[4,7,10,13]TETRAAZACYCLOHEXADECIN-20-YL)PROPANAMIDE] ({NH(4-Me-phenyl)-CO}-[Phe(3-Me)][aThr]P[Pip]A[Pro(4S-Me)]; ester 2-C)",2.35 ± 0.14 h
6,"Cc1ccc(NC(=O)N[C@@H](Cc2cccc(C)c2)C(=O)N[C@H]2COC(=O)[C@@H]3CCCN3C(=O)[C@H](C)NC(=O)[C@@H]3CCCCN3C(=O)[C@@H]3C[C@@H](O)CN3C2=O)cc1 [Compound 49, (S)—N-((6S,8AS,14AS,16R,20S,23AS)-16-HYDROXY-6-METHYL-5,8,14,19,23-PENTAOXOOCTADECAHYDRO-1H,5H,14H,19H-PYRIDO[2,1-I]DIPYRROLO[2,1-C:2′,1′-L][1]OXA[4,7,10,13]TETRAAZACYCLOHEXADECIN-20-YL)-3-(M-TOLYL)-2-(3-(P-TOLYL)UREIDO)PROPANAMIDE]",4.37 ± .373 h
